Measurements as given in BindingDB's records for patent US20240383893 (Haihe Biopharma, 2024).

Biological target: T1, Ectonucleotide pyrophosphatase/phosphodiesterase family member 1 (Homo sapiens, UniProt P22413)
T1 sequence (P22413 whole entry): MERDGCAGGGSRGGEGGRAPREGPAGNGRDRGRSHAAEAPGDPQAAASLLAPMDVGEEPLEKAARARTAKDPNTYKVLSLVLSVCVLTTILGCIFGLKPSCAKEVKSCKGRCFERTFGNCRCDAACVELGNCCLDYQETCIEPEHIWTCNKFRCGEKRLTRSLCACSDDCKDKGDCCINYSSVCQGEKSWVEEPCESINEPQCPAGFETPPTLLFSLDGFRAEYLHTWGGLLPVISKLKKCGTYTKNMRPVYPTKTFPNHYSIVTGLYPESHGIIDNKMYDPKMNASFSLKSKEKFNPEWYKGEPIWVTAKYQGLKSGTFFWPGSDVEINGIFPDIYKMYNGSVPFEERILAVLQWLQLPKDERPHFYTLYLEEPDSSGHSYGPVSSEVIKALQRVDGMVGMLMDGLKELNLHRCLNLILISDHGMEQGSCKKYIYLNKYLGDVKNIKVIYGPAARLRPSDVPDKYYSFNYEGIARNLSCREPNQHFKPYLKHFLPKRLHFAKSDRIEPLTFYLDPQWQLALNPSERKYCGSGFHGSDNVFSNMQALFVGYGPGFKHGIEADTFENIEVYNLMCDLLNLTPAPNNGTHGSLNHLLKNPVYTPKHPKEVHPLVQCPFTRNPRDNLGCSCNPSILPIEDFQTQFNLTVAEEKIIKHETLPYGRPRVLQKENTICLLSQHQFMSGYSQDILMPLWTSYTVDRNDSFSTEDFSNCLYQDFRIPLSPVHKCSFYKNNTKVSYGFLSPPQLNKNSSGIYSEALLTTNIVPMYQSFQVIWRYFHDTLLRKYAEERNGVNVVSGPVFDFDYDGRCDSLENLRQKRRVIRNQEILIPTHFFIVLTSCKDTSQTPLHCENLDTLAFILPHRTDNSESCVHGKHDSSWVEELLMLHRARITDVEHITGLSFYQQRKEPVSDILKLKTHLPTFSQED
Assay: ENPP1 Inhibitory Activity Assay

## COc1ccc2c(Oc3ccc(C(C)(C(=O)NO)C(C)C)cc3)ccnc2n1 (configuration not stated) [US20240383893, Compound 165]
  IC50: 23 nM

## COc1ccc2c(Oc3ccc(C(C(=O)NO)C(C)C)cc3)ccnc2n1 (configuration not stated) [US20240383893, Compound 130]
  IC50: 6.9 nM
